Test results taken from article PMC6173696, “Structural properties of a haemophore facilitate targeted elimination of the pathogen Porphyromonas gingivalis” (Nature Communications, 2018).
Where two headings read alike, the source gives them in different places.

Key:
HusA = molecular target: T1, HusA (Porphyromonas gingivalis, UniProt Q7MSY3); test: Tryptophan fluorescence quenching assay, HusA wild-type; type: binding
T1 sequence (Q7MSY3 24-218): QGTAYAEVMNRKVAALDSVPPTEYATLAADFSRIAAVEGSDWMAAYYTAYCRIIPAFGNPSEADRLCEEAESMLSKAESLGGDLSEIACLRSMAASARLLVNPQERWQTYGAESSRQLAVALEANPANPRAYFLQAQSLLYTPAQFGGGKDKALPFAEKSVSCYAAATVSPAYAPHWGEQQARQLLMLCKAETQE
Method: (§1) The quenching of intrinsic tryptophan fluorescence of HusA upon porphyrin additions was measured using a Carey Eclipse Fluorescence Spectrophotometer (Agilent) set to a photo multiplier effect (PME) of 850. A 5-mm path length quartz cuvette was used and all spectra were acquired at room temperature. Excitation was set to 295 nm and emission was measured from 300 nm to 500 nm using excitation/emission slit widths of 5 nm. Binding assays were performed at a protein concentration of 1 μM HusA in standard buffer at a working volume of 0.5 mL. […] The fluorescence quenching of HusA by PPIX was investigated in a similar manner with the following difference: the fluorescence intensities of ten 1 μM HusA samples were measured each with increasing amounts of PPIX after a 2-h incubation period to allow equilibrium to be reached. See Supplementary Methods for correction for inner filter effect and curve fitting. […]
(§2) Correction of inner filter effect and curve fitting in tryptophan fluorescence quenching assays The concentration of NATA was chosen such that the raw fluorescence intensity was similar to the […] concentrations of HusA and mutants used. The same molarity titrants of porphyrin were titrated into NATA as were added into HusA in the control reactions. Fluorescence intensity was scaled with respect to the starting florescence and corrected for the inner filter effect. Fluorescence at 335 nm was used to fit binding curves.
The correction method is based on Fonin AV., et al.26, noting that a Cary Eclipse spectrofluorimeter […]
performed to measure the contribution to the decrease in fluorescence due to the inner filter effect and this effect was scaled to the starting fluorescence values as fractional changes. The measured fluorescence at each titration point for each of the porphyrin titrations into protein was then adjusted for this contribution. Fluorescence at 335 nm was used to fit binding curves. Association constant, Ka, was fitted using the following equation in Origin, assuming a single binding site. A dissociation constant, Kd, was calculated by taking the inverse of the Ka.
Xobs = XA×f A+XAB×f AB (1) where XA is the corrected fluorescence, fA=1-fAB, fAB=x/(Bt), x=(-b-sqrt(b2-4×c))/2, b=-(1/Ka+At+Bt), c=Bt×At, Bt=total concentration of protein, At=total concentration of ligand.
To aid comparison of the different titrations, the corrected fluorescence was scaled to the starting fluorescence in the absence of porphyrins (i.e. all fluorescence curves have a starting value of one

HusA Y164A = molecular target: T2, HusA Y164A (Porphyromonas gingivalis, UniProt Q7MSY3, Y164A); test: Tryptophan fluorescence quenching assay, HusA mutant Y164A; type: binding
T2 sequence (Q7MSY3 24-218 Y164A): T1 sequence (Q7MSY3 24-218)
Method: as §1
as §2, with “The same molarity titrants of porphyrin were titrated into NATA as were added into HusA in the control reactions.” left out, “curves. […]” for “curves.”

HusA NNNA = test: Haemin binding to HusA mutant with all four mutations (NNNA), UV-vis and fluorescence; design: species or system Porphyromonas gingivalis; details: mutant incorporating all four mutations (L123, V124, W130, Y164)
Method: All absorbance spectra were recorded at room temperature using 10-mm quartz cuvettes on a Shimadzu UV-1601 or Jasco V-630 spectrophotometer. Mixtures of HusA/mutant with porphyrins were prepared by dissolving porphyrin stocks in standard buffer to a final concentration of 5–20 μM with a 1–1.5 molar ratio of protein to porphyrin, as specified in the relevant figure legends. PPIX:HusA mixtures were prepared by incremental addition of 2–4 μM HusA with a 10–15 min wait after each addition of HusA.
as §1, with “reached.” for “reached. See Supplementary Methods for correction for inner filter effect and curve fitting.”

[1] = type: physicochemical; details: aqueous haemin, 5 µM
Method: Spectra were recorded in 0.1 M NaCl with 0.1 M of the following buffers: citrate, pH 5.0; BisTris-HCl, pH 5.5; BisTris-HCl, pH 5.75: BisTris-HCl, pH 6.0; sodium phosphate, pH 6.5; sodium phosphate, pH 7.0; sodium phosphate, pH 7.5; Tris-HCl, pH 8.0; sodium borate, pH 9.0; sodium borate/NaOH, pH 9.8; sodium carbonate, pH 10.0 (not all titration points were collected for each protein)

p22HBP = molecular target: T3, p22HBP (Mus musculus, UniProt Q9R257); test: Acid-alkaline transition of UV-vis spectra, haemin bound to p22HBP; type: physicochemical; details: haemin bound to murine p22HBP
T3 sequence (Q9R257 1-190): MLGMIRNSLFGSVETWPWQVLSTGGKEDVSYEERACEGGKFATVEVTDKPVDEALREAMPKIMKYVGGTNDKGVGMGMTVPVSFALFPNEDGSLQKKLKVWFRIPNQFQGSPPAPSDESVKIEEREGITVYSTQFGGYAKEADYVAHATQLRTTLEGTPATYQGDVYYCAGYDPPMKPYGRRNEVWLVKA
Method: Supplementary Figure 16. Acid-alkaline transition in UV-vis spectra of various haem binding proteins. (Top) UV-visible spectra (units of wavelength are nm) used to generate the pH titration curves shown in Figure 2h and in the bottom panel. (Bottom) Acid-alkaline titration of 5 µM haemin in presence of 7 µM IsdH, 5 µM IsdB, 7 µM IsdH(Y642A) and 7 µM p22HBP. All proteins are in holo form. See Fig 2h legend for buffer conditions. Absorbance A600–A650 values are plotted except for IsdH and IsdB, for which A630–A600 is plotted (to avoid negative values). […]

Row | SMILES | Kd (HusA; estimate by comparison to other porphyrins, not fitted, UV-visible absorption and fluorescence data, read-out: affinity for HusA) [µM] | Kd (HusA; HusA wild-type 1 µM, fit to 1:1 binding model) [µM] | reduction of haemin affinity compared to wild-type (HusA Y164A) [%] | binding to haemin (HusA NNNA) | pKa of acid-alkaline transition [1] | pKa of acid-alkaline transition (p22HBP)
1 | CC1=Cc2cc3[nH]c(cc4nc(cc5[nH]c(cc1n2)cc5C)C(C)=C4CCC(=O)N[C@@H](CCCCNC(=O)OC(C)(C)C)C(=O)NCCn1c([N+](=O)[O-])cnc1C)c(CCC(=O)O)c3C [P8] | 1 to 10 | – | – | – | – | –
2 | C=CC1=C(C)c2cc3[nH]c(cc4nc(cc5[nH]c(cc1n2)c(C)c5CCC(=O)O)C(CCC(=O)O)=C4C)c(C)c3C=C.[Fe+3] [haemin] | – | 7.3 ± 1.1 | > 50 | minimal binding | 6.7 | 6.2
